Test results taken from PMC8198792, “Prediction of Anticancer Peptides with High Efficacy and Low Toxicity by Hybrid Model Based on 3D Structure of Peptides” (International Journal of Molecular Sciences, 2021).
Bridge positions count the residues as written; N and C are the ends. Peptide text beside a SMILES is read from it.

Columns and labels:
[1] = test system: Human breast cancer cell line (MCF7); assay type: cell-based; conditions: MTT assay, 6000 cells per well, peptides 0.5-128 μM for 24 h, triplicate, absorbance 570 and 630 nm; read-out: IC50 (μM) MCF7
Excerpt: (§1) Five peptides were randomly selected from the candidate ACPs and synthesized by Changzhou Kanglong Biotech Ltd (Changzhou, China). using 9-fuorenylmethoxy carbonyl (FMOC) solid phase synthesis technology. The synthetic peptide was identified by mass spectrometry (MS), and the purity >95% by high performance liquid chromatography (HPLC). Human breast cancer cell line (MCF7), lung cancer cell line (A549), cervical cancer cell line (HeLa), colorectal adenocarcinoma cell line (LoVo) and human embryonic kidney cells (293T) were preserved in our laboratory. At 37 °C under 5/95% CO2/air condition, all cell lines were cultured in Dulbecco’s modified Eagle medium (DMEM) supplemented with 10% (v/v) fetal bovine serum (FBS, Gibco, Carlsbad, CA, USA) and 1% (v/v) penicillin/streptomycin (Sangon Biotech, Shanghai, China).
(§2) Human tumor cell lines MCF7, A549, HeLa and LoVo were used as experimental materials to detect the anticancer activity of peptides by MTT assay. In addition, human embryonic kidney cells 293T were also included in the experiment to examine the safety of the peptide against non-cancerous cells. […] Untreated cells as negative control group incubated with corresponding medium for 24 h. Subsequently, 10 uL, 5 mg/mL MTT (Sangon Biotech, Shanghai, China) solution was added to each well and incubated for 4 h at 37 °C. After the medium was discarded, 150 μL DMSO was added to each well for 10 min to dissolve formazan crystals. Absorbance was measured at 570 and 630 nm using a multiwall plate reader and the inhibition rate was expressed as the mean ± standard deviation (SD) of the triplicate data.

[2] = test system: human embryonic kidney cells (293T); test: MTT assay on non-cancerous cells, 293T; assay type: cell-based
Excerpt: as §1, §2

[3] = test system: colorectal adenocarcinoma cell line (LoVo); assay type: cell-based, human; conditions: MTT assay, 6000 cells per well, peptides 0.5-128 μM for 24 h, triplicate, absorbance 570 and 630 nm; read-out: IC50 (μM) LoVo
Excerpt: as §1, §2

[4] = test system: lung cancer cell line (A549); assay type: cell-based, human
Excerpt: as §1, §2

[5] = test system: cervical cancer cell line (HeLa); assay type: cell-based, human; conditions: MTT assay, 6000 cells per well, peptides 0.5-128 μM for 24 h, triplicate, absorbance 570 and 630 nm; read-out: IC50 (μM) HeLa
Excerpt: as §1, §2

[6] = test system: 2% sheep red blood cells (SRBC); test: Hemolysis assay; assay type: cell-based
Procedure: The 2% sheep red blood cells (SRBC) were purchased from Nanjing Senbeijia Biological Technology Co., Ltd (Nangjing, China). A total of 4 mL of 2% SRBC was taken, rinsed twice with 4 mL of PBS by centrifugation for 5 min at 3000 rpm and the precipitates were resuspended in 4 mL of PBS. We added 100 μL of 2% SRBC to each well of the 96-well plate and then added 100 μL peptide solutions of different concentrations (2, 4, 8, 16, 32, 64, 128 and 256 μM) in triplicate at 37 °C for 1 h. 100 μL of PBS buffer and 100 uL of Triton X-100 0.1% (w/v) were mixed with SRBC as negative and positive controls, respectively. All samples were centrifuged at 3000 rpm for 5 min, 100 μL supernatant was collected and transferred to a new 96-well plate, and its absorbance was measured at 540 nm. The calculation formula of hemolysis rate is as follows. (5) % Hemolysis=absorbancesample-absorbancenegative/absorbancepositive-absorbancenegative×100

Compound: CC[C@H](C)[C@H](NC(=O)[C@H](CC(C)C)NC(=O)[C@H](CC(C)C)NC(=O)[C@H](CC(=O)O)NC(=O)[C@H](CCCCN)NC(=O)[C@@H](NC(=O)[C@H](C)NC(=O)CNC(=O)[C@H](CC(C)C)NC(=O)[C@@H](NC(=O)CN)C(C)C)C(C)C)C(=O)NCC(=O)N[C@@H](C)C(=O)NCC(=O)N[C@@H](CCCCN)C(=O)N[C@@H](CO)C(=O)N[C@@H](C)C(=O)N[C@@H](C)C(=O)N[C@@H](CCC(N)=O)C(=O)N[C@@H](CO)C(=O)N[C@H](C(=O)N[C@@H](CC(C)C)C(=O)N[C@@H](CCCCN)C(=O)N[C@H](C(=O)N[C@@H](CC(C)C)C(=O)N[C@@H](CO)C(=O)N[C@H]1CSSC[C@@H](C(=O)O)NC(=O)[C@H](CC(=O)O)NC(=O)[C@H](CC(N)=O)NC(=O)[C@H](CO)NC(=O)[C@H](CC(C)C)NC(=O)[C@H](CCCCN)NC1=O)[C@@H](C)O)C(C)C [Odorranain-C1] (H-GVLGAVKDLLIGAGKSAAQSVLKTLSCKLSNDC-OH; disulfide 27-33)
- IC50 [1]: 41.2 µM
- toxicity to 293T cells (in words) ([2]; low toxicity when the IC50 value exceeded 50 μM, MTT, 24 h): certain toxicity
- IC50 ([2]; non-cancerous cells, MTT assay, 6000 cells per well, peptides 0.5-128 μM for 24 h, triplicate, absorbance 570 and 630 nm, read-out: IC50 (μM) 293T): 48.7 µM
- IC50 [3]: 55.2 µM
- IC50 ([4]; MTT assay, 6000 cells per well, peptides 0.5-128 μM for 24 h, triplicate, absorbance 570 and 630 nm, read-out: IC50 (μM) A549): 27.3 µM
- killing effects on lung cancer cell A549 (in words) ([4]; MTT, 24 h, anticancer activity when IC50 less than 50 μM): effective killing effects
- IC50 [5]: 52.8 µM
- hemolysis (in words) ([6]; hemolytic rate of 100 μM peptides more than 10% as the classification standard, 2% sheep erythrocytes): no hemolysis
- Hemolytic effect on 2% sheep erythrocytes, peptide concentration 2 μM ([6]; peptide 2 μM, 2% SRBC in PBS, 37 °C, 1 h, absorbance 540 nm, triplicate): − (The “−” symbol indicates the hemolysis rate of less than 10% at peptides concentration of 100 μM)
- Hemolytic effect on 2% sheep erythrocytes, peptide concentration 4 μM ([6]; peptide 4 μM, 2% SRBC in PBS, 37 °C, 1 h, absorbance 540 nm, triplicate): − (The “−” symbol indicates the hemolysis rate of less than 10% at peptides concentration of 100 μM)
- Hemolytic effect on 2% sheep erythrocytes, peptide concentration 8 μM ([6]; peptide 8 μM, 2% SRBC in PBS, 37 °C, 1 h, absorbance 540 nm, triplicate): − (The “−” symbol indicates the hemolysis rate of less than 10% at peptides concentration of 100 μM)
- Hemolytic effect on 2% sheep erythrocytes, peptide concentration 16 μM ([6]; peptide 16 μM, 2% SRBC in PBS, 37 °C, 1 h, absorbance 540 nm, triplicate): − (The “−” symbol indicates the hemolysis rate of less than 10% at peptides concentration of 100 μM)
- Hemolytic effect on 2% sheep erythrocytes, peptide concentration 32 μM ([6]; peptide 32 μM, 2% SRBC in PBS, 37 °C, 1 h, absorbance 540 nm, triplicate): − (The “−” symbol indicates the hemolysis rate of less than 10% at peptides concentration of 100 μM)
- Hemolytic effect on 2% sheep erythrocytes, peptide concentration 64 μM ([6]; peptide 64 μM, 2% SRBC in PBS, 37 °C, 1 h, absorbance 540 nm, triplicate): − (The “−” symbol indicates the hemolysis rate of less than 10% at peptides concentration of 100 μM)
- Hemolytic effect on 2% sheep erythrocytes, peptide concentration 128 μM ([6]; peptide 128 μM, 2% SRBC in PBS, 37 °C, 1 h, absorbance 540 nm, triplicate): − (The “−” symbol indicates the hemolysis rate of less than 10% at peptides concentration of 100 μM)
- Hemolytic effect on 2% sheep erythrocytes, peptide concentration 256 μM ([6]; peptide 256 μM, 2% SRBC in PBS, 37 °C, 1 h, absorbance 540 nm, triplicate): − (The “−” symbol indicates the hemolysis rate of less than 10% at peptides concentration of 100 μM)
